Test results: PubChem BioAssay AID2060882 (Molecular Pharmacology Branch, DTP, NCI, 2025)

Tested on: 898857-211-R-J1-PDC complex spheroids, growth % test/control
Experiment: Anticancer human tumor 898857-211-R-J1-PDC patient-derived melanoma cell line growth inhibition [RAS]
Conditions: for IC50: curve of first compound; for viability, T/C: stronger effect = lower value
In short: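 Multi-cell-type spheroids: tumor cells plus HUVEC endothelial cells and mesenchymal stem cells. RAS-pathway inhibitors were combined with targeted agents, each dosed in half-log steps down from clinical Cmax, or from 10 microM when Cmax was unknown.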

[1] = second compound 0.000949 µM, first compound 0.0316 µM
[2] = second compound 0.000949 µM, first compound 0.1 µM
[3] = second compound 0.000949 µM, first compound 0.316 µM
[4] = second compound 0.000949 µM, first compound 1 µM
[5] = second compound 0.000949 µM, first compound 3.16 µM
[6] = second compound 0.000949 µM, first compound 10 µM
[7] = second compound 0.003 µM, first compound 0.0316 µM
[8] = second compound 0.003 µM, first compound 0.1 µM
[9] = second compound 0.003 µM, first compound 0.316 µM
[10] = second compound 0.003 µM, first compound 1 µM
[11] = second compound 0.003 µM, first compound 3.16 µM
[12] = second compound 0.003 µM, first compound 10 µM
[13] = second compound 0.00949 µM, first compound 0.0316 µM
[14] = second compound 0.00949 µM, first compound 0.1 µM
[15] = second compound 0.00949 µM, first compound 0.316 µM
[16] = second compound 0.00949 µM, first compound 1 µM
[17] = second compound 0.00949 µM, first compound 3.16 µM
[18] = second compound 0.00949 µM, first compound 10 µM
[19] = second compound 0.03 µM, first compound 0.0316 µM
[20] = second compound 0.03 µM, first compound 0.1 µM
[21] = second compound 0.03 µM, first compound 0.316 µM
[22] = second compound 0.03 µM, first compound 1 µM
[23] = second compound 0.03 µM, first compound 3.16 µM
[24] = second compound 0.03 µM, first compound 10 µM
[25] = second compound 0.0949 µM, first compound 0.0316 µM
[26] = second compound 0.0949 µM, first compound 0.1 µM
[27] = second compound 0.0949 µM, first compound 0.316 µM
[28] = second compound 0.0949 µM, first compound 1 µM
[29] = second compound 0.0949 µM, first compound 3.16 µM
[30] = second compound 0.0949 µM, first compound 10 µM
[31] = second compound 0.3 µM, first compound 0.0316 µM
[32] = second compound 0.3 µM, first compound 0.1 µM
[33] = second compound 0.3 µM, first compound 0.316 µM
[34] = second compound 0.3 µM, first compound 1 µM
[35] = second compound 0.3 µM, first compound 3.16 µM
[36] = second compound 0.3 µM, first compound 10 µM
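Further: spheroids exposed to compound for seven days before readout.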
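Wherever viability, T/C is given: 100% = DMSO vehicle control wells.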

With `CC(C)NCC(C(=O)N1CCN(c2ncnc3c2C(C)CC3O)CC1)c1ccc(Cl)cc1` (stereo not drawn) + CCn1c(-c2cc(N3CCN(C)CC3)cnc2C(C)OC)c2c3cc(ccc31)-c1csc(n1)CC(NC(=O)C1CC1C)C(=O)N1CCCC(N1)C(=O)OCC(C)(C)C2 the IC50 (second compound 0.000949 µM) was over 10000 nM, the IC50 (second compound 0.003 µM) was 7540 nM and the IC50 (second compound 0.00949 µM) was 7680 nM. The IC50 (second compound 0.03 µM) was 6370 nM, the IC50 (second compound 0.0949 µM) was 8160 nM and the IC50 (second compound 0.3 µM) was 6160 nM. The viability, T/C [1] was 105%, the viability, T/C [2] was 105% and the viability, T/C [3] was 103%. It also gave a viability, T/C [4] of 76.7%, a viability, T/C [5] of 58.6% and a viability, T/C [6] of 50.5%. The viability, T/C [7] was 102%, the viability, T/C [8] was 106% and the viability, T/C [9] was 93.5%. It also gave a viability, T/C [10] of 82.1%, a viability, T/C [11] of 63.3% and a viability, T/C [12] of 45.6%. The viability, T/C [13] was 85.4%, the viability, T/C [14] was 101% and the viability, T/C [15] was 82%. It also gave a viability, T/C [16] of 82%, a viability, T/C [17] of 61.4% and a viability, T/C [18] of 46.6%. It also gave a viability, T/C [19] of 94%, a viability, T/C [20] of 109% and a viability, T/C [21] of 96%. The viability, T/C [22] was 75.7%, the viability, T/C [23] was 61.2% and the viability, T/C [24] was 43.5%. For the same compound, the viability, T/C [25] was 99.4%, the viability, T/C [26] was 107% and the viability, T/C [27] was 104%. The viability, T/C [28] was 79.6%, the viability, T/C [29] was 69.1% and the viability, T/C [30] was 45.6%. The viability, T/C [31] was 99.9%, the viability, T/C [32] was 97.2% and the viability, T/C [33] was 86.2%. It also gave a viability, T/C [34] of 91.8%, a viability, T/C [35] of 63.9% and a viability, T/C [36] of 39.8%.

`CC(C)n1nc(-c2ccc3oc(N)nc3c2)c2c(N)ncnc21` + CCn1c(-c2cc(N3CCN(C)CC3)cnc2C(C)OC)c2c3cc(ccc31)-c1csc(n1)CC(NC(=O)C1CC1C)C(=O)N1CCCC(N1)C(=O)OCC(C)(C)C2 showed an IC50 (second compound 0.000949 µM) of 20.5 nM, an IC50 (second compound 0.003 µM) of 19.3 nM and an IC50 (second compound 0.00949 µM) of 17.3 nM. For the same compound, the IC50 (second compound 0.03 µM) was 13.7 nM, the IC50 (second compound 0.0949 µM) was 18.2 nM and the IC50 (second compound 0.3 µM) was 14.9 nM. For the same compound, the viability, T/C (second compound 0.000949 µM, first compound 0.000316 µM) was 98%, the viability, T/C (second compound 0.000949 µM, first compound 0.001 µM) was 82.6% and the viability, T/C (second compound 0.000949 µM, first compound 0.00316 µM) was 89.9%. The viability, T/C (second compound 0.000949 µM, first compound 0.01 µM) was 63.3%, the viability, T/C [1] was 41.1% and the viability, T/C [2] was 16.7%. For the same compound, the viability, T/C (second compound 0.003 µM, first compound 0.000316 µM) was 100%, the viability, T/C (second compound 0.003 µM, first compound 0.001 µM) was 92.8% and the viability, T/C (second compound 0.003 µM, first compound 0.00316 µM) was 86.5%. The viability, T/C (second compound 0.003 µM, first compound 0.01 µM) was 69.3%, the viability, T/C [7] was 35.6% and the viability, T/C [8] was 14.1%. The viability, T/C (second compound 0.00949 µM, first compound 0.000316 µM) was 92%, the viability, T/C (second compound 0.00949 µM, first compound 0.001 µM) was 88.3% and the viability, T/C (second compound 0.00949 µM, first compound 0.00316 µM) was 80.2%. For the same compound, the viability, T/C (second compound 0.00949 µM, first compound 0.01 µM) was 63.5%, the viability, T/C [13] was 35.4% and the viability, T/C [14] was 15.7%. It also gave a viability, T/C (second compound 0.03 µM, first compound 0.000316 µM) of 97.4%, a viability, T/C (second compound 0.03 µM, first compound 0.001 µM) of 91.8% and a viability, T/C (second compound 0.03 µM, first compound 0.00316 µM) of 69.5%. It also gave a viability, T/C (second compound 0.03 µM, first compound 0.01 µM) of 57%, a viability, T/C [19] of 35.2% and a viability, T/C [20] of 12.4%. For the same compound, the viability, T/C (second compound 0.0949 µM, first compound 0.000316 µM) was 109%, the viability, T/C (second compound 0.0949 µM, first compound 0.001 µM) was 108% and the viability, T/C (second compound 0.0949 µM, first compound 0.00316 µM) was 79.5%. It also gave a viability, T/C (second compound 0.0949 µM, first compound 0.01 µM) of 64.6%, a viability, T/C [25] of 38.5% and a viability, T/C [26] of 15.1%. It also gave a viability, T/C (second compound 0.3 µM, first compound 0.000316 µM) of 103%, a viability, T/C (second compound 0.3 µM, first compound 0.001 µM) of 100% and a viability, T/C (second compound 0.3 µM, first compound 0.00316 µM) of 69.2%. It also gave a viability, T/C (second compound 0.3 µM, first compound 0.01 µM) of 56.2%, a viability, T/C [31] of 40.2% and a viability, T/C [32] of 12.7%.

Compound `CC(Nc1ccc2c(c1)OCCn1cc(N3C(=O)OCC3C(F)F)nc1-2)C(N)=O` (stereo not drawn) + CCn1c(-c2cc(N3CCN(C)CC3)cnc2C(C)OC)c2c3cc(ccc31)-c1csc(n1)CC(NC(=O)C1CC1C)C(=O)N1CCCC(N1)C(=O)OCC(C)(C)C2 has an IC50 (second compound 0.000949 µM) of over 10000 nM, an IC50 (second compound 0.003 µM) of over 10000 nM and an IC50 (second compound 0.00949 µM) of 6620 nM. The IC50 (second compound 0.03 µM) was 9250 nM, the IC50 (second compound 0.0949 µM) was 9600 nM and the IC50 (second compound 0.3 µM) was 8390 nM. The viability, T/C [1] was 102%, the viability, T/C [2] was 90.3% and the viability, T/C [3] was 96%. For the same compound, the viability, T/C [4] was 73.8%, the viability, T/C [5] was 66% and the viability, T/C [6] was 53.2%. The viability, T/C [7] was 93.4%, the viability, T/C [8] was 95.7% and the viability, T/C [9] was 83.6%. The viability, T/C [10] was 76.4%, the viability, T/C [11] was 73.3% and the viability, T/C [12] was 52.2%. The viability, T/C [13] was 82.5%, the viability, T/C [14] was 80.4% and the viability, T/C [15] was 80.2%. It also gave a viability, T/C [16] of 73.5%, a viability, T/C [17] of 63% and a viability, T/C [18] of 42.7%. For the same compound, the viability, T/C [19] was 103%, the viability, T/C [20] was 91.5% and the viability, T/C [21] was 80.9%. For the same compound, the viability, T/C [22] was 72.6%, the viability, T/C [23] was 68.5% and the viability, T/C [24] was 45.5%. For the same compound, the viability, T/C [25] was 106%, the viability, T/C [26] was 85.1% and the viability, T/C [27] was 95.3%. It also gave a viability, T/C [28] of 80.5%, a viability, T/C [29] of 67.8% and a viability, T/C [30] of 48.1%. It also gave a viability, T/C [31] of 98.3%, a viability, T/C [32] of 99.3% and a viability, T/C [33] of 84.2%. It also gave a viability, T/C [34] of 71.7%, a viability, T/C [35] of 66.1% and a viability, T/C [36] of 46.4%.

With `C[C@@H](NC(=O)c1ncnc(N)c1Cl)c1ncc(C(=O)Nc2cc(C(F)(F)F)c(Cl)cn2)s1` + CCn1c(-c2cc(N3CCN(C)CC3)cnc2C(C)OC)c2c3cc(ccc31)-c1csc(n1)CC(NC(=O)C1CC1C)C(=O)N1CCCC(N1)C(=O)OCC(C)(C)C2 the IC50 (second compound 0.000949 µM) was 1690 nM, the IC50 (second compound 0.003 µM) was 1340 nM and the IC50 (second compound 0.00949 µM) was 1300 nM. For the same compound, the IC50 (second compound 0.03 µM) was 1090 nM, the IC50 (second compound 0.0949 µM) was 1360 nM and the IC50 (second compound 0.3 µM) was 1150 nM. The viability, T/C [1] was 131%, the viability, T/C [2] was 98.4% and the viability, T/C [3] was 85%. It also gave a viability, T/C [4] of 59.8%, a viability, T/C [5] of 38.7% and a viability, T/C [6] of 20%. The viability, T/C [7] was 106%, the viability, T/C [8] was 109% and the viability, T/C [9] was 71%. It also gave a viability, T/C [10] of 55.2%, a viability, T/C [11] of 40.7% and a viability, T/C [12] of 22%. For the same compound, the viability, T/C [13] was 107%, the viability, T/C [14] was 99.5% and the viability, T/C [15] was 83.6%. For the same compound, the viability, T/C [16] was 53.7%, the viability, T/C [17] was 33.9% and the viability, T/C [18] was 21.2%. It also gave a viability, T/C [19] of 107%, a viability, T/C [20] of 99.3% and a viability, T/C [21] of 78.8%. For the same compound, the viability, T/C [22] was 50.3%, the viability, T/C [23] was 33.4% and the viability, T/C [24] was 21.7%. For the same compound, the viability, T/C [25] was 121%, the viability, T/C [26] was 106% and the viability, T/C [27] was 72.6%. It also gave a viability, T/C [28] of 52.2%, a viability, T/C [29] of 38% and a viability, T/C [30] of 19.6%. For the same compound, the viability, T/C [31] was 108%, the viability, T/C [32] was 87.5% and the viability, T/C [33] was 65.9%. For the same compound, the viability, T/C [34] was 56.8%, the viability, T/C [35] was 33.6% and the viability, T/C [36] was 16.9%.
